Experimental data as given in the NIST ThermoML archive (doi:10.1016/j.jct.2012.07.008).
± gives the expanded uncertainty stated by the source.

Assay: molar enthalpy of vaporization or sublimation
Details: 298.15 K; Liquid; drop calorimetry

molar enthalpy: 16.6 ± 1.05 kcal/mol
Structure (SMILES): O=C1CCCc2occc21 [6,7-dihydrobenzofuran-4(5H)-one]
